“Also recorded” adds a separate entry of the source.
Legend:
[1] = test system: nine additional ZIKV strains; experiment: Plaque reduction inhibition assay, nine additional ZIKV strains taken together; format: cell-based; conditions: Zika virus, Vero C1008; range over nine additional strains, Vero E6 cells; read-out: IC50 values against all nine ZIKV strains tested
Protocol: (§1) A plaque reduction inhibition assay was carried out to measure the inhibitory activity of Z-medicaments against infections of ZIKV and DENV. […] The compound-virus mixtures were then transferred to Vero E6 cells (10^5/well) and incubated at 37° C. for 1 h.
The identified Z-medicaments were further studied for their broad-spectrum activity against nine additional ZIKV strains, including those isolated from different hosts, namely humans, mosquitos, and rhesus macaques, at different time periods (1947-2016) in different countries, including Mexico, Panama, Columbia, Honduras, Puerto Rico, Thailand, Nigeria, and Uganda.

[2] = Safety of ST087010 in pregnant Ifnar1-/- mice and their pups; format: in vivo
Protocol: FIG. 10A depicts weight changes of pregnant mothers at prenatal and postnatal time points and FIG. 10B depicts weight changes of pups at different postnatal time points. Alanine aminotransferase (ALT) (FIG. 10C) and creatinine (FIG. 10D) levels in sera of pregnant mice were measured by ALT assay and Creatinine assay, respectively, before and 4 h, 1, 3 and 5 days post-last injection of ST087010 or DMSO control. Haematoxylin and eosin (H&E) staining of tissues (FIG. 10E), including liver, spleen, kidney, and brain, from ST087010 or DMSO-treated mothers and their pups. Scale bar, 50 μm.
ST087010 was detected for its safety profiles in pregnant Ifnar1^−/− mice and their fetuses. Briefly, groups of 5 pregnant mice (8-12-week-old, E12-14) were i.p. injected with ST087010 (20 or 40 mg/kg of body weight), or DMSO (control), daily for 4 continual days. […] Sera collected before and 4 h, 1, 3 and 5 days after last injection were measured for ALT and creatinine levels using ALT and Creatinine Assay kits. Two mothers and their pups (at 3-week-old) were sacrificed, and their liver, spleen, kidney, and brain tissues were sectioned, and assessed for histopathological changes by H&E staining.

[3] = biological target: T1, binding between ZIKV EDIII and EDI/II-specific mAb ZKA78 (Zika virus, UniProt Q32ZE1, D679E/I627V/V603I/V629A); experiment: ELISA competition, control EDI/II-specific mAb ZKA78; conditions: ZKA78 does not bind EDIII
T1 construct: human Fc (C)
T1 sequence (Q32ZE1 584-695 V603I/I627V/V629A/D679E): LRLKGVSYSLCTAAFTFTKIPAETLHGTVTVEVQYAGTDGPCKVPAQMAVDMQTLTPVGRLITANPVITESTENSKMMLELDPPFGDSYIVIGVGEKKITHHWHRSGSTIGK
Protocol: ELISA was also used to determine the ability of ST087010 in inhibition of the binding between ZIKV EDIII and EDIII-specific human mAbs (SMZAb5, ZKA64-LALA, ZV-67, or Z004) or EDI/II-specific human mAb (ZKA78) control. […] The plates were then sequentially incubated with HRP-conjugated anti-human IgG-Fab antibody and TMB substrate, followed by detection of A450 values. Percent inhibition (% inhibition) of compounds was calculated based on the ELISA results, and IC50 was obtained […].

[4] = test system: ZIKV human strain R116265 (2016/Mexico); experiment: Plaque reduction inhibition assay in Vero E6 cells, ZIKV R116265; format: cell-based, Zika virus (ZIKV); conditions: Table 7, gossypol derivatives, read-out: ZIKV strains IC50, R116265
Excerpt: Vero E6 and LLC-MK2 cells were maintained in Dulbecco's Modified Eagle Medium (DMEM) supplemented with 8% fetal bovine serum (FBS) and penicillin and streptomycin (P/S). C6/36 cells were maintained in Eagle's Minimal Essential Medium (EMEM) supplemented with 5% FBS and P/S. ZIKV strains, including human strains PAN2016 (2016/Panama), R116265 (2016/Mexico), PAN2015 (2015/Panama), FLR (2015/Colombia), R103451 (2015/Honduras), PRVABC59 (2015/Puerto Rico), PLCal_ZV (2013/Thailand), and IbH 30656 (1968/Nigeria), mosquito strain MEX 2-81 (2016/Mexico), and rhesus macaque strain MR 766 (1947/Uganda), were used in the studies. These ZIKV strains were cultured in Vero E6 cells, and viral titers were detected by a standard plaque-forming assay. DENV human strains, including type 1: DENV-1-V1792 (2007/Vietnam), type 2: DENV-2-V594 (2006/Puerto Rico), type 3: DENV-3-V1043 (2006/Puerto Rico), and type 4: DENV-4-PR 06-65-740 (2006/Puerto Rico), were cultured in C6/36 cells, and the viral titers were determined by plaque-forming assay as described above.
as §1, with “h. […] The cells were washed thoroughly with PBS, and overlaid with DMEM containing 1% carboxymethyl cellulose and 2% FBS, followed by in vitro culture at 37° C. for 4-5 days and then staining with 0.5% crystal violet.” for “h.”
After removal of the unbound compounds by centrifugation after addition of 3% PEG-6000, ZIKV was incubated with Vero E6 cells at 37° C. for 1 h. The cells were then washed with PBS, overlaid with DMEM containing 1% carboxymethyl cellulose and 2% FBS, and cultured at 37° C. for 4-5 days, followed by staining with 0.5% crystal violet.

Structure (SMILES)	IC50 [1] [nM]	Serum ALT and creatinine levels vs DMSO-treated mice, low dose ([2]; 20 mg/kg)	Serum ALT and creatinine levels vs DMSO-treated mice, high dose ([2]; 40 mg/kg, 1 day after injection, elevations transient)	Histopathology of liver, spleen, kidney and brain, mothers and pups ([2]; 20 or 40 mg/kg, vs DMSO)	ALT and creatinine levels in sera, before vs after injection ([2]; 20 or 40 mg/kg, before injection and 4 h, 3 or 5 days after last injection)	Effect on binding of EDI/II-specific mAb ZKA78 (control) [3]	IC50 [4] [nM]
Cc1cc2c(C(C)C)c(O)c(O)c(C=O)c2c(O)c1-c1c(C)cc2c(C(C)C)c(O)c(O)c(C=O)c2c1O [Gossypol, gossypol]	210 to 4310	–	–	–	–	–	–
Cc1cc2c(C(C)C)c(O)c(O)c(/C=N/n3c(=O)[nH][nH]c3=O)c2c(O)c1-c1c(C)cc2c(C(C)C)c(O)c(O)c(/C=N/n3c(=O)[nH][nH]c3=O)c2c1O [ST087010]	–	no significant difference	significantly different	no abnormal pathological changes; also recorded: no inflammation or cell infiltration	no significant differences	no observable effect	2910 ± 70

— patent US20220313651A1, “INHIBITORS OF ZIKA VIRUS INFECTION” (priority 2019, published 2022)
